In patent US20240376119A1, “SPIRO COMPOUND AND USE THEREOF” (CSPC Zhongqi Pharmaceutical Technology (Shijiazhuang) Co., …, priority 2021, published 2024):

Assays:
[1] = Mouse pharmacokinetic assay (intragastric administration, plasma HPLC-MS/MS); format: in vivo; conditions: ICR mice
Procedure: ICR mice were intragastrically administered with the compound at 10 mg/kg or 20 mg/kg. At different time points (0.25 h, 0.5 h, 1 h, 2 h, 4 h, 8 h, 24 h) after administration, the mice blood was collected from the orbit. The collected whole blood was anticoagulated with heparin sodium and centrifuged at 3000 g to obtain mouse plasma samples. Methanol was added to precipitate proteins. The drug concentration in the mouse plasma after administration was determined by the HPLC-MS/MS method. A drug concentration-time curve was plotted and the pharmacokinetic parameters were calculated. The pharmacokinetic behavior in mice after the compound administration was described by means of non-compartment model statistical moment parameters.

[2] = molecular target: hERG channel (Homo sapiens (Human), UniProt Q12809); assay: hERG assay, manual whole-cell patch clamp in CHO-K1 cell line stably expressing the hERG channel; format: cell-based
Chain of hERG channel (Q12809 whole entry): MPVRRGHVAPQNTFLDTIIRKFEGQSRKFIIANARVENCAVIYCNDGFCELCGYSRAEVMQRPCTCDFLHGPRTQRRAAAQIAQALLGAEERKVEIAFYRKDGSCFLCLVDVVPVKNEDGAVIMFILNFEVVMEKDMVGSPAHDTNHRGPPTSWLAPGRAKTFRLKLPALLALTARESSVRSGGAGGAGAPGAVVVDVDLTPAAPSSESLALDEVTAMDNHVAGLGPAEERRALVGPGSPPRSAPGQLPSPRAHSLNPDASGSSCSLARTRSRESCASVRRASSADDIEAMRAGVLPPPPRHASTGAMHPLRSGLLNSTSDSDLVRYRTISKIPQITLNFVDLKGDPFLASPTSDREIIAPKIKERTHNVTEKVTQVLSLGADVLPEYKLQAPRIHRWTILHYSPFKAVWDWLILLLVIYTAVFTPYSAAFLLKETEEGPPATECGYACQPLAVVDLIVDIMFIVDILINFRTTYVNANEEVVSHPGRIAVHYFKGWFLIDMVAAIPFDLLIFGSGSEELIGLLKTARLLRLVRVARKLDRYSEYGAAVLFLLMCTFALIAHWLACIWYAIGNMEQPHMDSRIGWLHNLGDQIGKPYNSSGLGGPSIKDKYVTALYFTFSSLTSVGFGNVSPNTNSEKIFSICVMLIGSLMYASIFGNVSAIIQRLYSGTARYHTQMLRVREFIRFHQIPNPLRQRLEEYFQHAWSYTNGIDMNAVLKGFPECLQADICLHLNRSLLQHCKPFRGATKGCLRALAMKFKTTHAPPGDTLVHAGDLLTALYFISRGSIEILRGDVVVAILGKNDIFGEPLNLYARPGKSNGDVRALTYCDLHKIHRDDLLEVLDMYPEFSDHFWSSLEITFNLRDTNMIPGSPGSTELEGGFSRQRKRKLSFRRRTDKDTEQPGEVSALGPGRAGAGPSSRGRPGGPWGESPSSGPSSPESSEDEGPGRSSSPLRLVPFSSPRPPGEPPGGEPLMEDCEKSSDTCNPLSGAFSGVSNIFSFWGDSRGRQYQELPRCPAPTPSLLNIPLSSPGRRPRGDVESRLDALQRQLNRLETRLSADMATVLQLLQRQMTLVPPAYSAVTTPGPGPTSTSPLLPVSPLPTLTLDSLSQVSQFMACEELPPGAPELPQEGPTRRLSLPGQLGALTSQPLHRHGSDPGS
Procedure: This assay included the following aspects: • A manual patch clamp technique was used to record the hERG current in the CHO-K1 cell line stably expressing the hERG channel; • The inhibition rate at each concentration was calculated based on the hERG tail current; • Each compound was tested at 5 concentrations to calculate the IC50 value; • Three cells were tested for each concentration; • One positive control drug was set.
HERG currents were recorded using the whole-cell patch-clamp technique. The cell suspension was added to the cell tank and placed on the upright microscope stage. After the cell adherence, the cells were perfused with extracellular fluid at a flow rate of 1-2 mL/min. The glass microelectrode was drawn in two steps by a micropipette puller, and its resistance value in water was 2-5 MΩ. After establishing the whole-cell recording, the clamp potential was maintained at −80 mV. The hERG tail current was elicited by applying a depolarizing voltage to +60 mV upon the voltage stimulation and then repolarizing to −50 mV. All recordings were made after the current stabilization. Extracellular perfusion administration started from a low concentration, and each concentration lasted for 5-10 minutes until the current was stable, and then proceeded to the next concentration.
The half inhibitory concentration (ICSO) of the test compound was derived from the best fit of the Logistic equation.

[3] = test system: human acute myeloid leukemia MV-4-11 cells; assay: In vitro inhibitory effect on the proliferation of MV-4-11 cells (MTT, 72 h); format: cell-based; conditions: MV4-11, 72 hours exposure
Procedure: The human acute myeloid leukemia MV-4-11 cells used in the assay were purchased from Shanghai Institutes for Biological Sciences, Chinese Academy of Sciences. The complete culture medium required for cell culture was IMDM (GIBCO Company), which was supplemented with 10% fetal bovine serum (GIBCO Company). Cells were cultured in a 37° C., 5% CO2 incubator. The reagents used in the assay included dimethyl sulfoxide (purchased from Tianjin Kemiou Chemical Reagent Co., Ltd.), and MTT (Shanghai Topbiochem Co., Ltd., CAS. NO. 298-93-1). The test substance was sealed and stored at 4° C.
Dimethyl sulfoxide was used as the solvent to fully dissolve the test substance and prepare a stock solution with a concentration of 5×10^−2 mol/L. The stock solution was stored at −20° C. A complete culture medium was used as the diluent, and the test substance was diluted to different concentrations in a gradient for later use. 100 µL/well (2×10^4 cells/well) of a suspension of MV-4-11 cells in the complete culture medium was added to a 96-well culture plate. 100 μL/well of the corresponding test substances at different concentrations were added respectively. 8 concentrations were set for each test substance, and 3 duplicate wells were set for each concentration. The plate was cultured in a 37° C., 5% CO2 incubator. 20 μL/well of MTT was added after 72 hours of exposure to the test substances. The plate was cultured for 4 hours in a 37° C., 5% CO2 incubator. The supernatant was discarded, and 150 μL/well of dimethyl sulfoxide was added. The plate contents were oscillated and mixed evenly. The microplate reader was used to detect the OD value at a wavelength of 550 nm. The well only containing the cell suspension without test substance was a control well, and the well only containing the complete culture medium was a blank well. The inhibition rate of the cell growth was calculated with the following formula: • Inhibition rate=(ODcontrol well-ODtest well)/(ODcontrol well-ODblank well)*100%. According to the inhibition rates at each concentration, SPSS software was used to calculate the half inhibitory concentration IC50 value.

[4] = molecular target: SHP2 (Homo sapiens (Human), UniProt Q06124); assay: Assay for the inhibitory effect on the SHP2 enzyme (DiFMUP substrate, fluorescence); format: biochemical; conditions: SHP2 activated with SHP-2 activated peptide; DiFMUP 10 μM; read-out: Enzymatic Effect (IC50 on SHP2)
Procedure: 1× Assay buffer was prepared. A compound to be tested was diluted with DMSO solvent to a stock concentration of 10 mM. The compound to be tested was first diluted to an intermediate concentration of 1000 μM and then further diluted in a 3-fold gradient using DMSO. Therefore, the intermediate gradient dilution concentration of the compound to be tested was: 1000 μM, 3-fold dilution, 11 gradients. 100 nL of each concentration of the compound in the 384-well LDV echo plate was transferred to a new 384-well ELISA plate (assay plate) (corning, Cat #4514) by the Echo550 instrument. The final concentration of the compound to be tested was 10 μM, 3-fold dilution, 11 gradients in duplicate after 10 μL of the reaction reagent was added. The final DMSO concentration was 1%. For both negative and positive control wells, 100 nL DMSO would be transferred.
A mixed liquor of 2× working SHP2 reagent (0.4 nM) and 0.5 μM SHP-2 activated peptide (BPS bioscience #79319-2) was prepared with 1× enzyme buffer. After the above-mixed liquor was incubated at 25° C. for 60 minutes, 5 μL of activated SHP2 kinase solution was transferred with a pipettor to the compound wells and the Max control wells (Corning, #4514) of the plate. Then 5 μL of 1× kinase buffer was transferred to the Min control wells. The plate was centrifuged at 1000 rpm for 30 seconds, sealed, and incubated in a 25° C. constant-temperature incubator for 30 minutes. A substrate solution of DiFMUP (#D6567, Invitrogen™) was prepared with 1× kinase buffer, and its concentration should be 2 times as the final concentration of the assay (DiFMUP final concentration: 10 μM). 5 μL of the prepared substrate solution was transferred with an electric pipettor into each well of the ELISA plate to start the reaction. The plate was centrifuged at 1000 rpm for 30 seconds, sealed, and incubated in a 25° C. constant-temperature incubator for 60 minutes. Read the plate at the excitation/emission wavelength of 358/455 nm after the ELISA plate was placed on the Spark machine.
The RLU values were collected from Spark and the inhibition rate was calculated with the RLU values. Inhibition rate=(maximum value-sample RLU)/(maximum value-minimum value)*100. “Minimum value” was referred to the RLU of the enzyme-free control, and “maximum value” was referred to the RLU of the DMSO control. The data were fit by using the XLFit Excel module (version 5.4.0.8) to obtain IC50 values, and the results are shown in Table 1.

[5] = test system: human lung adenocarcinoma NCI-H441 cells; assay: In vitro inhibitory effect on the proliferation of NCI-H441 cells (3D CellTiter Glo, 5 days); format: cell-based; conditions: 120 h, 3D cell viability
Procedure: The human lung adenocarcinoma cell NCI-H441 used in the assay was purchased from ATCC. The complete culture medium required for cell culture was RPMI 1640 Medium (GIBCO Company), which was supplemented with 10% fetal bovine serum (GIBCO Company). Cells were cultured in a 37° C., 5% CO2 incubator. The reagents used in the assay included dimethyl sulfoxide (purchased from Sigma), a 3D Cell Viability assay kit (purchased from Promega), and the control substance TW-45 used in the assay was obtained homemade. The test substance was sealed and stored at 4° C.
Dimethyl sulfoxide was used as the solvent to fully dissolve the test substance and prepare a stock solution with a concentration of 1×10^−2 mol/L. The stock solution was stored at −20° C. A complete culture medium was used as the diluent, and the test substance was diluted to different concentrations in gradient for later use (the final test concentration was 10000, 3333, 1111, 370, 123, 41, 13.7, 4.5, 1.5, and 0.5 nM). Cells were cultured in a 37° C., 5% CO2 incubator for 5 days. Detection was made on the fifth day. 30 μL of reagent (Celltiter Glo Assay Kit-3D) was added to each well and the plate was shaken on a plate oscillator (protected from light) for 30 minutes. The plate was incubated at room temperature (protected from light) for 120 minutes. Chemiluminescence values were recorded with a Multiplate reader. […]

[6] = Mouse tolerance assay (once daily for 7 consecutive days); format: in vivo; conditions: female ICR mice
Procedure: • Assay animals: ICR mice, female, 5 weeks old • Solvent: 2% DMSO+98% (0.5% MC), treated by sufficient vortex and sonicated to obtain a uniform suspension • Assay method: Female ICR mice were divided into 4 groups according to weight balance, with 5 mice in each group. The administration doses were 50 mg/kg and 200 mg/kg respectively. The compound was administrated once daily for 7 consecutive days.

[7] = mouse, po, intragastric, 20 mg/kg, plasma

Row | SMILES | IC50 [3] | IC50 [4] | other results
1 | CC(=O)c1nc(Sc2cccc(-c3ncco3)c2Cl)c(N)nc1N1CCC2(CC1)Oc1ccccc1[C@H]2N [Compound 1, (R)-1-(5-amino-3-(3-amino-3H-spiro[benzofuran-2,4′-piperidine]-1′-yl)-6-((2-chloro-3-(oxazole-2-yl)phenyl)sulfanyl)pyrazine-2-yl)ethanone] | ≤ 20 nM | ≤ 0.02 µM | exposure and absorption in mice (in words) ([1]; intragastric administration): relatively high exposure in mice and both were well absorbed in vivo; Cmax [1, 7]: 2490 ng/mL; Tmax [1, 7]: 4 h; AUC(0-t) ([1]; mouse, po, intragastric, 20 mg/kg, plasma, read-out: AUC0-24 h): 16900 ng·h/mL; IC50 ([2]; CHO-K1 stable cell line, hERG tail current, 5 concentrations): > 10 µM; inhibitory effect on the hERG channel (in words) ([2]; within the detection concentration range of the assay): no obvious inhibitory effect on the hERG channel
2 | CC(=O)c1nc(Sc2cccc(-c3ncco3)c2Cl)cnc1N1CCC2(CC1)Oc1ccccc1[C@H]2N [Compound 8] | ≤ 20 nM | ≤ 0.02 µM | 
3 | COC(=O)c1nc(Sc2cccc(-c3ncco3)c2Cl)c(N)nc1N1CCC2(CC1)Oc1ccccc1[C@H]2N [Compound 16, (R)-5-amino-3-(3-amino-3H-spiro[benzofuran-2,4′-piperidine]-1′-yl)-6-((2-chloro-3-(oxazole-2-yl)phenyl)sulfanyl)pyrazine-2-carboxylic acid methyl ester] | ≤ 20 nM | ≤ 0.02 µM | 
4 | COC(=O)c1nc(Sc2cccc(-c3ccn(C)n3)c2Cl)cnc1N1CCC2(CC1)Cc1ccccc1[C@H]2N [Compound 19] | ≤ 20 nM |  | 
5 | Nc1nc(N2CCC3(CC2)Oc2ccccc2[C@H]3N)c(C2COC2)nc1Sc1cccc(-c2ncco2)c1Cl [Compound 21, (R)-1′-(6-amino-5-((2-chloro-3-(oxazole-2-yl)phenyl)sulfanyl)-3-(oxetane-3-yl)pyrazine-2-yl)-3H-spiro[benzofuran-2,4′-piperidine]-3-amine] |  | ≤ 0.02 µM | 
6 | C=Cc1nc(Sc2cccc(-c3ncco3)c2Cl)c(N)nc1N1CCC2(CC1)Oc1ccccc1[C@H]2N [Compound 22] |  | ≤ 0.02 µM | 
7 | Nc1nc(N2CCC3(CC2)Oc2ccccc2[C@H]3N)cnc1Sc1ccnc(N)c1Cl [TW-45, reference compound] |  |  | days of administration after which death appeared ([6]; 200 mg/kg once daily): 4 days; death by the 7th day (in words) ([6]; 200 mg/kg once daily): all animals of the positive control had died by the 7th day; MTD at 7 days ([6]; mouse, in vivo, once daily for 7 days, read-out: mouse maximum tolerated dose MTD): < 200 mg/kg

Further lines, with some results ahead:

Row | IC50 [3] | IC50 [4] | SMILES | other results
8 |  | ≤ 0.02 µM | Nc1nc(N2CCC3(CC2)Oc2ccccc2[C@H]3N)c(F)nc1Sc1cccc(-c2ncco2)c1Cl [Compound 23, (R)-1′-(6-amino-5-((2-chloro-3-(oxazole-2-yl)phenyl)sulfanyl)-3-fluoropyrazine-2-yl)-3H-spiro[benzofuran-2,4′-piperidine]-3-amine] | 
9 |  | ≤ 0.02 µM | CC(=O)c1nc(Sc2ccnc(-c3ncco3)n2)c(N)nc1N1CCC2(CC1)Oc1ccccc1[C@H]2N [Compound 24, (R)-1-(5-amino-3-(3-amino-3H-spiro[benzofuran-2,4′-piperidine]-1′-yl)-6-((2-(oxazole-2-yl)pyrimidine-4-yl)sulfanyl)pyrazine-2-yl)ethanone] | 
10 | ≤ 20 nM | ≤ 0.02 µM | [2H][C@@]1(N)c2ccccc2OC12CCN(c1nc(N)c(Sc3ccnc(N)n3)nc1C(C)=O)CC2 [Compound 57] | 
11 |  | ≤ 0.02 µM | COC(=O)c1nc(Sc2ccnc(N)c2Cl)c(N)nc1N1CCC2(CC1)Oc1ccccc1[C@H]2N [Compound 58] | 
12 | ≤ 20 nM | ≤ 0.02 µM | [2H][C@@]1(N)c2ccccc2OC12CCN(c1nc(N)c(Sc3ccnc(N)c3Cl)nc1C(=O)OC)CC2 [Compound 59] | 
13 |  | ≤ 0.02 µM | [2H][C@@]1(N)c2ccccc2OC12CCN(c1nc(N)c(Sc3cccc(-c4ncco4)c3Cl)nc1C(C)=O)CC2 [Compound 60] | 
14 |  | ≤ 0.02 µM | CC(=O)c1nc(Sc2ccnc(N)c2Cl)c(N)nc1N1CCC2(CC1)Oc1ccccc1[C@H]2N [Compound 62] | IC50 [5]: 20 to 50 nM
